Experiments:
Assay type in all cases: functional
[1] = system: SK-MEL-28; assay: Cytotoxicity against human SK-MEL-28 cells assessed as cell growth at 10 uM incubated for 48 hrs by sulforhodamine B assay relative to control; details: SK-MEL-28, 48 h, read-out: Activity
[2] = system: U-251; assay: Cytotoxicity against human U251 cells assessed as cell growth at 10 uM incubated for 48 hrs by sulforhodamine B assay relative to control; details: U-251, 48 h, read-out: Activity
[3] = system: A498; assay: Cytotoxicity against human A498 cells assessed as cell growth at 0.1 uM incubated for 48 hrs by sulforhodamine B assay relative to control; details: A498, 48 h, read-out: Activity
[4] = system: COLO 205; assay: Cytotoxicity against human COLO205 cells assessed as cell growth at 0.01 uM incubated for 48 hrs by sulforhodamine B assay relative to control; details: COLO 205, 48 h, read-out: Activity
[5] = system: HL-60(TB); assay: Cytotoxicity against human HL-60(TB) cells assessed as cell growth at 0.1 uM incubated for 48 hrs by sulforhodamine B assay relative to control; details: HL-60, 48 h, read-out: Activity
[6] = system: T47D; assay: Cytotoxicity against human T47D cells assessed as cell growth at 0.01 uM incubated for 48 hrs by sulforhodamine B assay relative to control; details: read-out: Activity
[7] = system: HOP-92; assay: Cytotoxicity against human HOP92 cells assessed as cell growth at 1 uM incubated for 48 hrs by sulforhodamine B assay relative to control; details: HOP-92, 48 h, read-out: Activity
[8] = system: BT-549; assay: Cytotoxicity against human BT549 cells assessed as cell growth at 0.1 uM incubated for 48 hrs by sulforhodamine B assay relative to control; details: BT-549, 48 h, read-out: Activity
[9] = system: SF-539; assay: Cytotoxicity against human SF539 cells assessed as cell growth at 100 uM incubated for 48 hrs by sulforhodamine B assay relative to control; details: SF-539, 48 h, read-out: Activity
[10] = system: LOX IMVI; assay: Cytotoxicity against human LOXIMVI cells assessed as cell growth at 0.01 uM incubated for 48 hrs by sulforhodamine B assay relative to control; details: read-out: Activity
[11] = system: OVCAR-8; assay: Cytotoxicity against human OVCAR8 cells assessed as cell growth at 100 uM incubated for 48 hrs by sulforhodamine B assay relative to control; details: OVCAR-8, 48 h, read-out: Activity
[12] = system: SF-268; assay: Cytotoxicity against human SF268 cells incubated for 48 hrs by sulforhodamine B assay; details: SF-268, 48 h
[13] = system: UACC-62; assay: Cytotoxicity against human UACC62 cells assessed as cell growth at 10 uM incubated for 48 hrs by sulforhodamine B assay relative to control; details: UACC-62, 48 h, read-out: Activity
[14] = system: DU-145; assay: Cytotoxicity against human DU145 cells assessed as cell growth at 10 uM incubated for 48 hrs by sulforhodamine B assay relative to control; details: DU-145, 48 h, read-out: Activity
[15] = system: OVCAR-4; assay: Cytotoxicity against human OVCAR4 cells incubated for 48 hrs by sulforhodamine B assay; details: OVCAR-4, 48 h
[16] = system: SNB-19; assay: Cytotoxicity against human SNB19 cells assessed as cell growth at 1 uM incubated for 48 hrs by sulforhodamine B assay relative to control; details: SNB-19, 48 h, read-out: Activity
[17] = system: SF-295; assay: Cytotoxicity against human SF295 cells assessed as cell growth at 10 uM incubated for 48 hrs by sulforhodamine B assay relative to control; details: SF-295, 48 h, read-out: Activity
[18] = system: NCI-H460; assay: Cytotoxicity against human NCI-H460 cells assessed as cell growth at 0.1 uM incubated for 48 hrs by sulforhodamine B assay relative to control; details: NCI-H460, 48 h, read-out: Activity
[19] = system: HT-29; assay: Cytotoxicity against human HT-29 cells assessed as cell growth at 100 uM incubated for 48 hrs by sulforhodamine B assay relative to control; details: HT-29, 48 h, read-out: Activity
[20] = system: 786-0; assay: Cytotoxicity against human 786-0 cells assessed as cell growth at 10 uM incubated for 48 hrs by sulforhodamine B assay relative to control; details: 786-0, 48 h, read-out: Activity
[21] = system: DU-145; assay: Cytotoxicity against human DU145 cells assessed as cell growth at 0.1 uM incubated for 48 hrs by sulforhodamine B assay relative to control; details: DU-145, 48 h, read-out: Activity
[22] = system: SF-295; assay: Cytotoxicity against human SF295 cells assessed as cell growth at 1 uM incubated for 48 hrs by sulforhodamine B assay relative to control; details: SF-295, 48 h, read-out: Activity
[23] = system: NCI-H226; assay: Cytotoxicity against human NCI-H226 cells assessed as cell growth at 0.1 uM incubated for 48 hrs by sulforhodamine B assay relative to control; details: NCI-H226, 48 h, read-out: Activity
[24] = system: DU-145; assay: Cytotoxicity against human DU145 cells assessed as cell growth at 100 uM incubated for 48 hrs by sulforhodamine B assay relative to control; details: DU-145, 48 h, read-out: Activity
[25] = system: A549; assay: Cytotoxicity against human A549/ATCC cells incubated for 48 hrs by sulforhodamine B assay; details: A549, 48 h
[26] = system: SN12C; assay: Cytotoxicity against human SN12C cells assessed as cell growth at 100 uM incubated for 48 hrs by sulforhodamine B assay relative to control; details: read-out: Activity
[27] = system: HCT-15; assay: Cytotoxicity against human HCT15 cells assessed as cell growth at 10 uM incubated for 48 hrs by sulforhodamine B assay relative to control; details: HCT-15, 48 h, read-out: Activity
[28] = system: HCT-15; assay: Cytotoxicity against human HCT15 cells incubated for 48 hrs by sulforhodamine B assay; details: HCT-15, 48 h
[29] = system: NCI-H522; assay: Cytotoxicity against human NCI-H522 cells assessed as cell growth at 10 uM incubated for 48 hrs by sulforhodamine B assay relative to control; details: NCI-H522, 48 h, read-out: Activity
[30] = system: NCI-H226; assay: Cytotoxicity against human NCI-H226 cells assessed as cell growth at 100 uM incubated for 48 hrs by sulforhodamine B assay relative to control; details: NCI-H226, 48 h, read-out: Activity
[31] = system: UACC-62; assay: Cytotoxicity against human UACC62 cells assessed as cell growth at 0.1 uM incubated for 48 hrs by sulforhodamine B assay relative to control; details: UACC-62, 48 h, read-out: Activity
[32] = system: BT-549; assay: Cytotoxicity against human BT549 cells assessed as cell growth at 100 uM incubated for 48 hrs by sulforhodamine B assay relative to control; details: BT-549, 48 h, read-out: Activity

SMILES: COc1ccc(-c2nocc2-c2cc(OC)c(OC)c(OC)c2)cc1
- growth at 10 µM [1]: 46%
- growth at 10 µM [2]: 19%
- growth at 0.1 µM [3]: 29%
- growth at 0.01 µM [4]: 91%
- growth at 0.1 µM [5]: 25%
- growth at 0.01 µM [6]: 81%
- growth at 1 µM [7]: 46%
- growth at 0.1 µM [8]: 56%
- growth at 100 µM [9]: -15%
- growth at 0.01 µM [10]: 94%
- growth at 100 µM [11]: 4%
- GI50 ([12]; read-out: GI50): 0.549 µM
- LC50 ([12]; read-out: LC50): > 100 µM
- TGI ([12]; read-out: TGI): > 100 µM
- GI50 ([12]; read-out: pGI50 (converted)): 0.55 µM
- LC50 ([12]; read-out: pLC50 (converted)): > 100 µM
- TGI ([12]; read-out: pTGI): > 100 µM
- growth at 10 µM [13]: 5%
- growth at 10 µM [14]: 11%
- GI50 ([15]; read-out: GI50): 0.926 µM
- LC50 ([15]; read-out: LC50): > 100 µM
- TGI ([15]; read-out: TGI): > 100 µM
- GI50 ([15]; read-out: pGI50 (converted)): 0.933 µM
- LC50 ([15]; read-out: pLC50 (converted)): > 100 µM
- TGI ([15]; read-out: pTGI): > 100 µM
- growth at 1 µM [16]: 36%
- growth at 10 µM [17]: 5%
- growth at 0.1 µM [18]: 30%
- growth at 100 µM [19]: -36%
- growth at 10 µM [20]: 24%
- growth at 0.1 µM [21]: 71%
- growth at 1 µM [22]: 7%
- growth at 0.1 µM [23]: 90%
- growth at 100 µM [24]: 7%
- GI50 ([25]; read-out: GI50): 0.0869 µM
- LC50 ([25]; read-out: LC50): > 100 µM
- TGI ([25]; read-out: TGI): > 100 µM
- GI50 ([25]; read-out: pGI50 (converted)): 0.0871 µM
- LC50 ([25]; read-out: pLC50 (converted)): > 100 µM
- TGI ([25]; read-out: pTGI): > 100 µM
- growth at 100 µM [26]: -1%
- growth at 10 µM [27]: 11%
- GI50 ([28]; read-out: GI50): 0.044 µM
- LC50 ([28]; read-out: LC50): > 100 µM
- TGI ([28]; read-out: TGI): > 100 µM
- GI50 ([28]; read-out: pGI50 (converted)): 0.0437 µM
- LC50 ([28]; read-out: pLC50 (converted)): > 100 µM
- TGI ([28]; read-out: pTGI): > 100 µM
- growth at 10 µM [29]: -6%
- growth at 100 µM [30]: -20%
- growth at 0.1 µM [31]: 36%
- growth at 100 µM [32]: -24%

— ChEMBL document CHEMBL4145521, “Regioselective synthesis of 3,4-diaryl-5-unsubstituted isoxazoles, analogues of natural cytostatic combretastatin A4” (Eur J Med Chem, 2018)
